A short description of data set [1]: Exploratory activity in novel environment of an open field. It counts as in vivo. To be noted: rats. As for the experimental part:
Open field consisted of a square area (76×76 cm) with walls 42 cm high. Floor of the apparatus was divided by lines into 25 squares of equal size. Experiment was conducted in a quiet room under white light. Animals were tested 24 hr post 1st and 6th apomorphine injection. Numbers of squares crossed with all four paws and latency to move from the central square were scored for 5 min.

Data set [2] in a line: Motor behavior (cage crossings) and % psychosis like effects during conditioning phase. The data set is classed as in vivo. The conditions noted are these: rats. On the procedure: (§1) This phase started one day after pre-conditioning phase, animals were randomly assigned to six groups, each containing six animals: (i) buspirone (0 mg/kg)-saline, (ii) buspirone (0 mg/kg)-[…], (iii) buspirone (1 mg/kg)-saline, (iv) buspirone (1 mg/kg)-apomorphine, (v) buspirone (2 mg/kg)-saline and (vi) buspirone (2 mg/kg)-apomorphine injected animals. Over next 12 days (day 1 to day 12) animals went through conditioning (one session per day) in which they were confined to either the horizontal or vertical stripe compartment by raising the respective guillotine door. On day 1, 3, 5, 7, 9 and 11 animals of all groups were injected with saline (1 ml/kg) and placed immediately in the assigned ‘Non-Drug paired’ compartment for 30 min. After which the animals were kept back in their home cages. On every other day, i.e. day 2, 4, 6, 8, 10, and 12 control and test animals were injected with saline, buspirone and/or apomorphine as assigned above. Immediately after injections, animals were placed in the ‘Drug paired’ compartment for 30 min. The animals picked from the drug paired compartment were placed back in their home cages.
Motor behavior was also monitored during conditioning phase. Animals confined to a compartment were moving across the compartment. Activity scores were counted as number of cage crossings for 10 min starting 5 min post injection.

The nature of data set [3]: Morris water maze test (learning acquisition, memory consolidation, retention). It counts as in vivo, rats. As for the experimental part: The Morris water maze test was conducted after repetitive apomorphine injections and post-conditioning. Water temperature was at room temperature, 21±1° C. The platform (10 cm×10 cm) was made of clear acrylic and was hidden 2 cm below the surface of water in a fixed location. Water was made opaque by adding milk to it.
During training phase, each rat was placed into the water facing the wall of the tank and allowed 120 sec to locate and climb onto the submerged platform. The rat was allowed to stay on the platform for 10 sec. […] After the training animals were tested three times.
Each rat was tested immediately after training. Learning acquisition was determined by recording the initial latency (IL; the time taken by each rat to relocate the hidden platform).
Rats were tested for memory consolidation 60 min post training. It was determined by recording the retention latency (RL; the time taken by each rat to locate the hidden platform 1 h after training). The cut off time for each session was 2 min.
Rats were tested for memory retention 24 hr post training session. Memory retention was determined by recording the retention latency (RL; the time taken by each rat to locate the hidden platform 24 hr post training). The cut off time for each session was 2 min.

The nature of data set [4]: Conditioned place preference (CPP) test for addictive/reinforcing effects. The data set is classed as in vivo, rats.
Text: Apparatus for Conditioned Place Preference
A three compartment conditioned place preference (CPP) apparatus with an unbiased design was used to monitor drug-induced reinforcement. The apparatus was made up of transparent plastic Perspex. The compartments were separated by sliding guillotine doors.
The end (preference) compartments (26×26×26 cm each) provided distinct contexts, with one compartment having black horizontal stripes on side walls, the other compartment had vertical black stripes. […] The experiment was conducted in three distinct phases: pre-conditioning, conditioning and post-conditioning.
An animal introduced in the CPP apparatus from the middle compartment and guillotine doors were raised to open. The animal was allowed to explore the entire apparatus for 10 min. Time spent in each compartment was recorded.
as §1
The test was carried out on day 13, 24 hr post last conditioning session, in a drug free state. Each animal was tested only once. As in the pre-conditioning phase, the guillotine doors were removed and rat was given access to the entire apparatus for 10 min. Time spent in ‘Drug paired’ compartment was monitored.

Where [5] appears, read: buspirone 1 mg/kg co-treated with apomorphine 1 mg/kg.
The mark [6] stands for this setting: buspirone 1 mg/kg with apomorphine, rats.
[7] abbreviates: buspirone co-injected animals (summary statement).
Where [8] appears, read: buspirone 1 mg/kg co-administered with apomorphine 1 mg/kg, rats.

Structures are written as SMILES.

`O=C1CC2(CCCC2)CC(=O)N1CCCCN1CCN(c2ncccn2)CC1` [buspirone]: the “Effect on apomorphine-increased exploratory activity” value in data set [1] (buspirone 1 mg/kg, after 6th apomorphine injection) is listed as “attenuated”. In data set [2] (setting [5]), the “Effect on % psychosis like effects produced by apomorphine” value is “attenuated” and the “Effect on apomorphine-increased motor activities post repeated administration” value is on record as “attenuated”. For the same molecule, in data set [3] (setting [6]), the “Effect on apomorphine-increased learning acquisition” value was “further potentiated”, the “Effect on apomorphine-increased memory consolidation” value is reported as “further potentiated” and the “Effect on apomorphine-increased memory retention” value is recorded as “further potentiated”. The “Memory enhancing effects of apomorphine” value in data set [3] (setting [7]) is “potentiated”. In data set [4] (setting [8]), the “Effect on apomorphine-induced increases in post conditioning values of time spent in drug paired compartment” value was “significantly attenuates” and the “Reinforcement effects of apomorphine” value is on record as “did not occur”. For the same molecule, the Addiction to apomorphine entry in data set [4] (setting [7]) is recorded as “reduced”.
In the case of `CN1CCc2cccc3c2[C@H]1Cc1ccc(O)c(O)c1-3` [apomorphine], the “Exploratory activity in open field” value in data set [1] (apomorphine alone) is “increased”. For the same molecule, in data set [2] (apomorphine 1 mg/kg, repeated administration), the “Motor activities post repeated administration” value is given as “increased”. Further, the “Motor activities post single administration” value in data set [2] (apomorphine 1 mg/kg, single administration) is recorded as “increase”. Also, the “% psychosis like effects” value in data set [2] (apomorphine 1 mg/kg) is “produced”. Also, the “Memory consolidation (time taken to reach platform)” value in data set [3] (apomorphine vs saline treated animals, 60 min post training, rats) was “increase”. The “Memory retention (time taken to reach platform)” value in data set [3] (apomorphine vs saline treated animals, 24 hr post training, rats) is reported as “increase”. For the same molecule, the “Learning acquisition (time taken to reach platform)” value in data set [3] (apomorphine vs saline treated animals, tested immediately after training, rats) was “increase”. Further, in data set [4] (apomorphine 1 mg/kg, repeated, vs pre-conditioning/saline, rats), the “Post-conditioning values of time spent in the drug paired compartment” value is reported as “much higher”. Moreover, the “% reinforcement” value in data set [4] (apomorphine 1 mg/kg, rats) is “increased”.
